{
  "source": "patent US20100137346A1",
  "about": "“DESFE[…] ACTINIDE DEC[…]” (priority 2006, published 2010)",
  "key": {"[1]": {"test": "Chelator-induced uranium excretion (urine + bile, 24 h) in bile duct-cannulated rat model", "assay_type": "in vivo", "method_in_brief": "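Bile duct-cannulated rats received uranyl acetate dihydrate subcutaneously at 5 mg/kg, equal to 2.8 mg/kg uranium, and were then given a chelator. Urine and bile were collected for 24 hours and uranium was quantified by ICPMS. Results give total uranium excreted (urine + bile), the urine/bile split, the percentage of the administered dose cleared, and excretion relative to 14 pooled uranyl acetate-only controls. Each group had at least three animals.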"}, "[2]": {"conditions": "in vivo; cited from earlier work"}, "[3]": {"test": "GLP toxicity and pharmacokinetics profile (NIH Roadmap Program)", "assay_type": "in vivo", "description": "7. This same ligand (11) has now been run through the NIH Roadmap Program and a complete GLP toxicity and pharmacokinetics profile is available."}, "[4]": {"test": "Renal uranium content in uranyl acetate-treated bile duct-cannulated rats (FIG. 3)", "assay_type": "in vivo, rat", "procedure": "Desferrithiocin Analogue Induced Excretion of Uranium. In order to compare results with previous chelator-induced iron excretion data, the uranium clearance studies were carried out in a bile duct-cannulated rat model. The animals were given uranyl acetate dihydrate SC at a dose of 5 mg/kg (the actual dose of uranium is 2.8 mg/kg). Bile and urine samples were collected for 24 hours after dosing. Kidneys were removed from selected animals and tissue uranium concentration measured. At least three animals were utilized in each experimental group. Data from two separate control studies (uranyl acetate/ no chelator) have now been combined for a total of 14 control animals. All uranium concentrations were measured using ICPMS. The data are reported as the total quantity of uranium excreted [urine +bile]; the mode of excretion [urine/bile] is also given. In addition the percentage of the administered dose of uranium cleared and chelator-induced uranium excretion vs the controls is also given. Four positive controls were evaluated: DTPA (13, Table 1) given as its trisodium calcium salt, DFO (14), N,N′-bis(2hydroxybenzyl)ethylenediamine-N,N′-diacetic acid, monosodium salt (NaHBED, 15) and the hydroxypyridone CP94 (16) shown to bind uranium [Pashalidis, et al., Effective complex formation in the interaction of 1,2-dimethyl-3-hydroxypyrid-4-one (Deferiprone or L1) with uranium(VI), Journal of Radioanalytical and Nuclear Chemistry 1999; 242:181-184.] The total metal cleared after 24 h in control rats was 10% of the administered dose. When DTPA, 13, was given IP or PO at 300 μmol/kg immediately after uranium, the excretion was 17% and 8% of the administered dose respectively (p>0.05). However, when the drug was given IP at a dose of 600 μmol/kg immediately post-metal, the uranium excretion was significant, 20% (p<0.005). This is consistent with previously published data using a similar animal model.[Domingo, et al., Comparative effects of the chelators sodium 4,5-dihydroxybenzene-1,3-disulfonate (Tiron) and diethylenetriaminepentaacetic acid (DTPA) on acute uranium nephrotoxicity in rats, Toxicology 1997; 118:49-59] DFO (14) and CP94 (16) given IP immediately post uranyl acetate were ineffective.\nThe most promising analogue in the (S)-2-(2,4-dihydroxyphenyl)-4,5-dihydro-4-thiazolinecarboxylic series is the methoxy analogue (S)-4′-(CH3O)-DADMDFT (11). Given IP at 300 μmol/kg 0.5 h before uranyl acetate or immediately thereafter, nearly 30% of the metal was cleared (Table 1). This was also true if the drug was given IP 0.5 or 2 h post metal. The drug retains some efficacy given 4 h post uranium; 16% of the metal is excreted (p<0.006). When the chelator was given SC immediately post uranium, 40% of the administered metal was cleared. The increased excretion is probably associated with a slower absorption of the ligand. The data from rodents given the drug orally is even more encouraging (Table 1). […] The most profound data are associated with uranium decorporation from the kidneys (FIG. 3). When DTPA is given IP or PO at a dose of 300 μmol/kg immediately post metal, there is no reduction in renal uranium relative to controls. However, (S)-4′-(CH3O)-DADMDFT (11) given orally at a dose of 300 μmol/kg immediately post metal reduces renal uranium by 37% (p<0.005).\nThere is a small (16%) reduction when the drug is given PO at a dose of 300 μmol/kg 2 h post uranium. However, when 11 is given PO at a dose of 600 μmol/kg 0.5 h post metal, the renal uranium content is reduced by 76% (p<0.001). When given PO at the same dose 1 h post uranium exposure, the reduction is still significant, 42% (p<0.006). In all sets of ligands, the most lipophilic chelator is always the most toxic. […] On the basis of this finding, a less lipophilic, more water-soluble ligand than 12 was assembled, (S)-4′-(HO)-DADFT-PE (18, Table 1), a polyether analogue."}},
  "data": [
    {"smiles": "COc1ccc(C2=N[C@@H](C(=O)O)CS2)c(O)c1", "note": "[Compound 11, (S)-2-(2-hydroxy-4-methoxyphenyl)-4,5dihydro-4-thiazolecarboxylic acid]", "values": [
      {"measurement": "% of Administered Dose Cleared", "setting": "[1]; 300 μmol/kg IP 0.5 h Post", "result": "~30", "unit": "%"},
      {"measurement": "% of Administered Dose Cleared", "setting": "[1]; 300 μmol/kg IP 0.5 h Post, listed as (S)-4′-(CH3O)-DADMDFT", "result": "~30", "unit": "%"},
      {"measurement": "% of Administered Dose Cleared", "setting": "[1]; 300 μmol/kg IP 0.5 h Pre", "result": "~30", "unit": "%"},
      {"measurement": "% of Administered Dose Cleared", "setting": "[1]; 300 μmol/kg IP 0.5 h Pre, listed as (S)-4′-(CH3O)-DADMDFT", "result": "~30", "unit": "%"},
      {"measurement": "% of Administered Dose Cleared", "setting": "[1]; 300 μmol/kg IP 2 h Post", "result": "~30", "unit": "%"},
      {"measurement": "% of Administered Dose Cleared", "setting": "[1]; 300 μmol/kg IP 4 h Post", "result": 16, "unit": "%"},
      {"measurement": "% of Administered Dose Cleared", "setting": "[1]; 300 μmol/kg IP Immediate", "result": "~30", "unit": "%"},
      {"measurement": "% of Administered Dose Cleared", "setting": "[1]; 300 μmol/kg PO 2 h Post", "result": 18, "unit": "%"},
      {"measurement": "% of Administered Dose Cleared", "setting": "[1]; 300 μmol/kg PO Immediate", "result": 23, "unit": "%"},
      {"measurement": "% of Administered Dose Cleared", "setting": "[1]; 300 μmol/kg SC Immediate", "result": 40, "unit": "%"},
      {"measurement": "% of Administered Dose Cleared", "setting": "[1]; 600 μmol/kg PO 0.5 h Post", "result": 25, "unit": "%"},
      {"measurement": "% of Administered Dose Cleared", "setting": "[1]; 600 μmol/kg PO 1 h Post", "result": 26, "unit": "%"},
      {"measurement": "metabolite formed by metabolic O-demethylation", "setting": "[2]", "result": "(S)-4′-(HO)-DADMDFT (9)"},
      {"measurement": "no-observed-adverse-effect-level", "setting": "[3]", "result": "well within the range of expected human dosing requirements"},
      {"measurement": "reduction in renal uranium", "setting": "[4]; PO 300 μmol/kg 2 h post uranium", "result": 16, "unit": "%"},
      {"measurement": "reduction in renal uranium relative to controls", "setting": "[4]; PO 300 μmol/kg immediately post metal", "result": 37, "unit": "%"},
      {"measurement": "reduction in renal uranium content", "setting": "[4]; PO 600 μmol/kg 0.5 h post metal", "result": 76, "unit": "%"},
      {"measurement": "reduction in renal uranium content", "setting": "[4]; PO 600 μmol/kg 1 h post uranium exposure", "result": 42, "unit": "%"}
    ]}
  ]
}
